Laboratory results: patent US7829591B2, “Flavanone compound and uses thereof” (Pokka Corporation, priority 2003, dated 2010)

Assays:
Assay type in all cases: cell-based
Bacillus cereus (B. ce) = assay: Antimicrobial activity test with Compounds 1 to 4; details: for effect on growth and development of spore forming bacteria, B. ce (in words): 5-50 ppm
Description: (§1) That is, first of all, each of Compounds 1 to 4 was dissolved in 70% ethanol, and thereafter, standard agar media were prepared wherein the concentration of each of Compounds 1 to 4 was adjusted to be 0 ppm, 5 ppm, 10 ppm, 15 ppm, 20 ppm, or 50 ppm. Subsequently, these standard agar media were subjected to autoclave sterilization so as to prepare evaluation media, and each of the biological indicators was inoculated in each of these evaluation media. After the incubation of each of the bacteria, the number of the bacteria per a petri dish (CFU/petri dish) was determined.

[1] = test system: Staphylococcus aureus (Sta.); assay: Antimicrobial activity test with Compounds 1 to 4; details: for effect on growth and development of Gram-positive bacteria, Sta. (in words): 5-50 ppm
Description: as §1

E. coli = assay: Antimicrobial activity test with Compounds 1 to 4; details: for effect on growth and development of E. coli (in words): 5-50 ppm
Description: as §1

[2] = test system: Salmonella enteritidis (S. en; NBRC3313); assay: Antimicrobial activity test with Compounds 1 to 4; details: for effect on growth and development of S. en (in words): 5-50 ppm
Description: as §1

[3] = test system: breast cancer cells (MCF-7); assay: Breast cancer cell proliferation-inhibition test; details: for Relative Value of Living Cells: 0.1 nM estradiol, Control 1 at 0 day = 1
Description: When breast cancer cells (MCF-7) are cultured, if estradiol (or 17β-estradiol) having a cell-proliferation accelerating action, is added thereto, the proliferation of breast cancer cells can be simply promoted in a short period. This phenomenon was utilized so as to examine the effect of each of Compounds 1 to 4 and the like on the proliferation inhibition of breast cancer cells. That is, first of all, each of Compounds 1 to 4 was diluted with dimethyl sulfoxide to prepare a sample solution. Thereafter, 2×10^3 of MCF-7 were inoculated in each well of a 96-well plate, and estradiol and the sample solution were added thereto after 4 hours. Estradiol was added to each compartment so that the final concentration of estradiol can be 0.1 nM, and the final concentration of the sample solution can be 0.2 μM, 2 μM, or 20 μM. After incubation for a predetermined period of time (three or five days), each of the media was replaced with a new medium, and an enzyme solution (Cell counting Kit-8: Wako) was added to the new medium in an amount of 10% of the new medium. After maintained the medium in an incubator at a temperature of 37° C. for two hours, the absorbance of the medium was determined at a wavelength of 450 nm (a reference wave length of 630 nm) by means of a spectrophotometer so as to quantify the number of living cells in each compartment.
As for the compartment whose incubation period is predetermined to be five days, on the third day of the incubation, the medium was replaced with a new medium, and thereafter, estradiol and a sample solution were added to the new medium, and the incubation was continued till fifth day. As for the compartment whose incubation period is predetermined to be 0 day, at four hours after the cells were inoculated, an enzyme solution was added to the medium. The medium was maintained in an incubator at a temperature of 37° C. for two hours, followed by determining the absorbance.
Instead of Compounds 1 to 4, eriodictyol was used to determine the absorbance according to a similar procedure to the above-mentioned one, and thus the number of living cells in each compartment was quantified. Furthermore, Control 1 to which neither estradiol nor a sample had been added was used to determine the absorbance according to a similar procedure to the above-mentioned one, and thus the number of living cells in each compartment was quantified, while Control 2 to which no sample had been added was used to determine the absorbance according to a similar procedure to the above-mentioned one, and thus the number of living cells in each compartment was quantified.
When it is assumed that the number of living cells of Control 1 as quantified after a zero-day incubation period is 1, the relative value of living cells as quantified in each of the runs mentioned above is shown in Table 2. Incidentally, each of values shown in Table 2 is the average value and standard deviation of values obtained from eight wells.

[4] = 5 ppm in standard agar medium, 0 ppm: 13 (Table 3), 183 (Table 4)
[5] = 5 ppm in standard agar medium, 0 ppm: 470 (Table 3), 202 (Table 4)
[6] = 5 ppm in standard agar medium, 0 ppm: >3000 (Table 3), 5 (Table 4)
[7] = 5 ppm in standard agar medium, 0 ppm: >3000 (Table 3), 221 (Table 4)
[8] = 0.2 μM sample, after 3-days incubation
[9] = 0.2 μM sample, after 5-days incubation
[10] = 0.2 μM sample, on 0-day incubation, mean ± SD of eight wells
[11] = 2 μM sample, after 3-days incubation
[12] = 2 μM sample, after 5-days incubation
[13] = 2 μM sample, on 0-day incubation
[14] = 20 μM sample, after 3-days incubation
[15] = 20 μM sample, after 5-days incubation
[16] = 20 μM sample, on 0-day incubation

| Structure (SMILES) | effect on growth and development of spore forming bacteria, B. ce (in words) (Bacillus cereus (B. ce)) | Number of Bacteria, B. ce (Bacillus cereus (B. ce); [4]) [CFU/petri dish] | Number of Bacteria, B. ce (Bacillus cereus (B. ce); 10 ppm in standard agar medium) [CFU/petri dish] | Number of Bacteria, B. ce (Bacillus cereus (B. ce); 15 ppm in standard agar medium) [CFU/petri dish] | Number of Bacteria, B. ce (Bacillus cereus (B. ce); 20 ppm in standard agar medium) [CFU/petri dish] | Number of Bacteria, B. ce (Bacillus cereus (B. ce); 50 ppm in standard agar medium) [CFU/petri dish] | effect on growth and development of Gram-positive bacteria, Sta. (in words) [1] | Number of Bacteria, Sta. [1, 5] [CFU/petri dish] | Number of Bacteria, Sta. ([1]; 10 ppm in standard agar medium) [CFU/petri dish] | Number of Bacteria, Sta. ([1]; 15 ppm in standard agar medium) [CFU/petri dish] | Number of Bacteria, Sta. ([1]; 20 ppm in standard agar medium) [CFU/petri dish] | Number of Bacteria, Sta. ([1]; 50 ppm in standard agar medium) [CFU/petri dish] | effect on growth and development of E. coli (in words) (E. coli) | Number of Bacteria, E. coli (E. coli; [6]) [CFU/petri dish] | Number of Bacteria, E. coli (E. coli; 10 ppm in standard agar medium) [CFU/petri dish] | Number of Bacteria, E. coli (E. coli; 15 ppm in standard agar medium) [CFU/petri dish] | Number of Bacteria, E. coli (E. coli; 20 ppm in standard agar medium) [CFU/petri dish] | Number of Bacteria, E. coli (E. coli; 50 ppm in standard agar medium) [CFU/petri dish] | effect on growth and development of S. en (in words) [2] | Number of Bacteria, S. en [2, 7] [CFU/petri dish] | also measured |
| --- | --- | --- | --- | --- | --- | --- | --- | --- | --- | --- | --- | --- | --- | --- | --- | --- | --- | --- | --- | --- | --- |
| CC(C)=CCC/C(C)=C/Cc1c([C@@H]2CC(=O)c3c(O)cc(O)cc3O2)ccc(O)c1O [Compound 1, 5,7,3′,4′-tetrahydroxy-2′-C-geranylflavanone] | more strongly the growth and development of each of Gram-5 positive bacteria and spore forming bacteria is inhibited | 12 | 0 | 0 | 0 | 0 | more strongly the growth and development of each of Gram-5 positive bacteria and spore forming bacteria is inhibited | 344 | 36 | 0 | 0 | 0 | little effect upon the growth and development | >3000 | >3000 | >3000 | >3000 | >3000 | little effect upon the growth and development | >3000 | Number of Bacteria, S. en ([2]; 10 ppm in standard agar medium): >3000 CFU/petri dish; Number of Bacteria, S. en ([2]; 15 ppm in standard agar medium): >3000 CFU/petri dish; Number of Bacteria, S. en ([2]; 20 ppm in standard agar medium): >3000 CFU/petri dish; Number of Bacteria, S. en ([2]; 50 ppm in standard agar medium): >3000 CFU/petri dish; Relative Value of Living Cells [3, 8]: 2.86 ± 0.14; Relative Value of Living Cells [3, 9]: 7.26 ± 0.48; Relative Value of Living Cells [3, 10]: 0.98 ± 0.04; Relative Value of Living Cells [3, 11]: 2.58 ± 0.11; Relative Value of Living Cells [3, 12]: 6.01 ± 0.25; Relative Value of Living Cells [3, 13]: 0.99 ± 0.05; Relative Value of Living Cells [3, 14]: 2.22 ± 0.19; Relative Value of Living Cells [3, 15]: 4.17 ± 0.50; Relative Value of Living Cells [3, 16]: 1.01 ± 0.05 |
| CC(C)=CCC/C(C)=C/Cc1cc([C@@H]2CC(=O)c3c(O)cc(O)cc3O2)cc(O)c1O [Compound 2, 5,7,3′,4′-tetrahydroxy-5′-C-geranylflavanone] | more strongly the growth and development of each of Gram-5 positive bacteria and spore forming bacteria is inhibited | 17 | 0 | 0 | 0 | 0 | more strongly the growth and development of each of Gram-5 positive bacteria and spore forming bacteria is inhibited | 395 | 108 | 22 | 0 | 0 | little effect upon the growth and development | >3000 | >3000 | >3000 | >3000 | >3000 | little effect upon the growth and development | >3000 | Number of Bacteria, S. en ([2]; 10 ppm in standard agar medium): >3000 CFU/petri dish; Number of Bacteria, S. en ([2]; 15 ppm in standard agar medium): >3000 CFU/petri dish; Number of Bacteria, S. en ([2]; 20 ppm in standard agar medium): >3000 CFU/petri dish; Number of Bacteria, S. en ([2]; 50 ppm in standard agar medium): >3000 CFU/petri dish; Relative Value of Living Cells [3, 8]: 2.97 ± 0.37; Relative Value of Living Cells [3, 9]: 6.83 ± 0.58; Relative Value of Living Cells [3, 10]: 0.95 ± 0.04; Relative Value of Living Cells [3, 11]: 2.68 ± 0.19; Relative Value of Living Cells [3, 12]: 6.59 ± 0.50; Relative Value of Living Cells [3, 13]: 0.99 ± 0.04; Relative Value of Living Cells [3, 14]: 2.59 ± 0.21; Relative Value of Living Cells [3, 15]: 5.59 ± 1.01; Relative Value of Living Cells [3, 16]: 1.00 ± 0.07 |
| CC(C)=CCC/C(C)=C/Cc1c(O)cc2c(c1O)C(=O)C[C@@H](c1ccc(O)c(O)c1)O2 [Compound 3, 5,7,3′,4′-tetrahydroxy-6-C-geranylflavanone] | high antimicrobial activity | 4 | 0 | 0 | 0 | 0 | high antimicrobial activity | 22 | 0 | 0 | 0 | 0 | high antimicrobial activity | 3 | 1 | 0 | 0 | 0 | antimicrobial activity | 296 | Number of Bacteria, S. en ([2]; 10 ppm in standard agar medium): 207 CFU/petri dish; Number of Bacteria, S. en ([2]; 15 ppm in standard agar medium): 116 CFU/petri dish; Number of Bacteria, S. en ([2]; 20 ppm in standard agar medium): 143 CFU/petri dish; Number of Bacteria, S. en ([2]; 50 ppm in standard agar medium): 43 CFU/petri dish; Relative Value of Living Cells [3, 8]: 2.94 ± 0.20; Relative Value of Living Cells [3, 9]: 6.99 ± 0.66; Relative Value of Living Cells [3, 10]: 0.99 ± 0.05; Relative Value of Living Cells [3, 11]: 2.53 ± 0.30; Relative Value of Living Cells [3, 12]: 5.38 ± 0.44; Relative Value of Living Cells [3, 13]: 1.01 ± 0.05; Relative Value of Living Cells [3, 14]: 1.21 ± 0.22; Relative Value of Living Cells [3, 15]: 0.89 ± 0.12; Relative Value of Living Cells [3, 16]: 0.96 ± 0.04; inhibiting effect on the proliferation of breast cancer cells (in words) ([3]; 20 μM, compared with Control 1): cytotoxic effect upon breast cancer cells |
